Holding throughout (assay type): cell-based
One test relates to SK-OV-3. Description: MTS cell growth inhibition assay, SK-OV-3. The conditions noted are these: Homo sapiens, SK-OV-3, Ovarian; for inhibition at 200 µM: read-out: Mean Percent Response at 200 μM (percent of cell growth inhibited); for IC50: mean of 2 independent trials. How it is done:
(§1) Activity Of 6-Methyloxamethyl Exemestane Compounds Against Cancer Cell Lines. Cancer-derived cell lines were used for the following growth inhibition assay. The ability of the compound of Formula (B) above and the compound of Formula (D) above to inhibit cancer-derived cell growth was compared to exemestane as a control.
(§2) Cell viability is determined using the MTS assay. This calorimetric procedure measures conversion of the MTS reagent (a tetrazoleum salt) to formazan by living cells. Formazan production is quantified by spectrophotometric measurement at 490 nm and is proportional to viable cell number. Cells are cultured and treated. Following treatment, 100 μl of growth medium is removed and cells incubated with 20 μl CellTiter 96® AQueous One Solution Reagent (1.9 mg/ml in PBS, pH 6.0) for 1-3 hours at 37° C. Absorbance (OD) values are measured using a μQuant microplate reader at a single wavelength of 490 nm.
(§3) Additional assays were performed to evaluate the growth-inhibiting activity of the compound of Formula (B) above and the compound of Formula (D) compared to exemestane as a control.

The subject of another test is NIH: H23. The test is described as follows: MTS cell growth inhibition assay, NIH: H23. Particulars: NIH: H23, Lung; for inhibition at 200 µM: read-out: Mean Percent Response at 200 μM (percent of cell growth inhibited); for IC50: mean of 2 independent trials. How it is done:
as §1, §2, §3

For another test, the system named is Capan-1. Description: MTS cell growth inhibition assay, Capan-1. The conditions noted are these: Homo sapiens, Capan-1, Pancreas; for inhibition at 200 µM: read-out: Mean Percent Response at 200 μM (percent of cell growth inhibited); for IC50: mean of 2 independent trials. How it is done:
as §1, §2, §3

The next test relates to MCF-7. Description: MTS cell growth inhibition assay, MCF-7. The conditions noted are these: Homo sapiens, MCF7, MCF-7, Breast; for inhibition at 200 µM: read-out: Mean Percent Response at 200 μM (percent of cell growth inhibited); for IC50: mean of 2 independent trials. How it is done:
as §1, §2, §3

The subject of another test is PC-3. The test is described as follows: MTS cell growth inhibition assay, PC-3. Particulars: Homo sapiens, PC-3, Prostrate; for inhibition at 200 µM: read-out: Mean Percent Response at 200 μM (percent of cell growth inhibited); for IC50: mean of 2 independent trials. How it is done: as §1, §2, §3
The subject of another test is MV 522. Description: MTS cell growth inhibition assay, MV 522. The conditions noted are these: MV522, MV 522, Lung; for inhibition at 200 µM: read-out: Mean Percent Response at 200 μM (percent of cell growth inhibited); for IC50: mean of 2 independent trials. How it is done: as §1, §2, §3
The next test has as its system MDA-MB-231. Description: MTS cell growth inhibition assay, MDA-MB-231. The conditions noted are these: Homo sapiens, MDA-MB-231, Breast; for inhibition at 200 µM: read-out: Mean Percent Response at 200 μM (percent of cell growth inhibited); for IC50: mean of 2 independent trials. How it is done: as §1, §2, §3
The next test deals with NIH: OVCAR-3. Description: MTS cell growth inhibition assay, NIH: OVCAR-3. The conditions noted are these: Homo sapiens, NIH: OVCAR-3, Ovarian; for inhibition at 200 µM: read-out: Mean Percent Response at 200 μM (percent of cell growth inhibited); for IC50: mean of 2 independent trials. How it is done: as §1, §2, §3
Another test relates to HT-29. The test is described as follows: MTS cell growth inhibition assay, HT-29. The conditions noted are these: Homo sapiens, HT-29, Colon; for inhibition at 200 µM: read-out: Mean Percent Response at 200 μM (percent of cell growth inhibited); for IC50: mean of 2 independent trials. How it is done: as §1, §2, §3
Another test has as its system Capan-2. Description: MTS cell growth inhibition assay, Capan-2. Particulars: Homo sapiens, Capan-2, Pancreas; for inhibition at 200 µM: read-out: Mean Percent Response at 200 μM (percent of cell growth inhibited); for IC50: mean of 2 independent trials. How it is done: as §1, §2, §3
For test [1], the system named is a variety of cancer cell lines. The test is described as follows: Growth inhibition across the cancer cell line panel. The conditions noted are these: for activity against cancer cell lines, in words: text summary of Tables 1-3. How it is done: as §1, §2, §3

`C=C1C[C@@H]2[C@H](CC[C@]3(C)C(=O)CC[C@@H]23)[C@@]2(C)C=CC(=O)C=C12` [Exemestane, 6-methylenandrosta-1,4-diene-3,17-dione]: the inhibition at 200 µM in the test on SK-OV-3 is 85%; in the test on NIH: H23, 81%; in the test with Capan-1, 74%; with MCF-7, 68%; with PC-3, 67%; with MV 522 it was 79%. In addition, the inhibition at 200 µM is 67% in the test on MDA-MB-231, 88% in the test on NIH: OVCAR-3, 75% in the test with HT-29 and 56% in the test with Capan-2. The IC50 in the test on SK-OV-3 came out at 78 µM; in the test on NIH: H23, 50 µM; in the test on Capan-1 it was 98 µM; with MCF-7, 96 µM; in the test on PC-3, 105 µM; in the test on MV 522, 103 µM. Besides, the concentration for half-maximal inhibition (IC50) with MDA-MB-231 was determined as 64 µM; in the test on NIH: OVCAR-3, 73 µM; in the test on HT-29, 103 µM; with Capan-2, 94 µM. Also, the “activity against cancer cell lines, in words” value in test [1] was “marginal activity”.
For `COC[C@H]1C[C@@H]2[C@H](CC[C@]3(C)C(=O)CC[C@@H]23)[C@@]2(C)C=CC(=O)C=C12` [Exemestane 6S], the inhibition at 200 µM in the test with SK-OV-3 stood at 0.3%; in the test with NIH: H23 it was 12%; in the test on Capan-1 it was 5%; in the test on MCF-7 it was 0%; in the test on PC-3, 0%; in the test with MV 522 it was 19%. Besides, the inhibition at 200 µM in the test with MDA-MB-231 came out at 21%; with NIH: OVCAR-3, 6%; with HT-29, 8%; with Capan-2 it was 15%. Also, the IC50 in the test on SK-OV-3, in the test with NIH: H23, in the test with Capan-1, in the test with MCF-7, in the test on PC-3 and in the test with MV 522 was above 200 µM throughout. For the same compound, the IC50 with MDA-MB-231, with NIH: OVCAR-3, with HT-29 and in the test on Capan-2 was above 200 µM each time. Further, the “activity against cancer cell lines, in words” value in test [1] is on record as “works best against cell lines that are estrogen (−) and/or aromatase (+)”.
Regarding `COC[C@@H]1C[C@@H]2[C@H](CC[C@]3(C)C(=O)CC[C@@H]23)[C@@]2(C)C=CC(=O)C=C12` [Exemestane 6R], the inhibition at 200 µM in the test with SK-OV-3 came to 98%; in the test on NIH: H23 it was 65%; with Capan-1, 28%; in the test with MCF-7 it was 56%; with PC-3, 78%; in the test on MV 522, 96%. The inhibition at 200 µM is 95% in the test with MDA-MB-231; 78% in the test with NIH: OVCAR-3; 80% in the test with HT-29; 46% in the test with Capan-2; 95 to 98% in [1] (see Table 2, 200 μM, read-out: inhibition against a variety of cancer cell lines). Besides, the IC50 in the test with SK-OV-3 was 106 µM; in the test on NIH: H23, 106 µM; in the test with Capan-1, 176 µM; in the test with MCF-7, above 200 µM; with PC-3, 108 µM; with MV 522 it was 95 µM. Moreover, the IC50 was 77 µM with MDA-MB-231, 54 µM in the test with NIH: OVCAR-3, 110 µM in the test on HT-29 and 104 µM in the test with Capan-2.

These data come from patent US7846918B2, “Exemestane compounds, compositions and related methods of use” (Endece, LLC, priority 2005, dated 2010).
